Series [1] is described as follows: Compound stability in a biological matrix (human plasma). In kind it is in vitro ADME. The following applies: 10 μg/mL, 37° C., LC-MS/MS. The procedure: (§1) A compound was dissolved in DMSO as a 1 mg/mL stock solution. An ACN solution of the compound at 100 μg/mL was prepared from the stock solution, 10 μL of which was added to a biological matrix (90 μL) to the final concentration of 10 μg/mL for the compound. The mixtures of the compound in a biological matrix were incubated at 37° C. for 0, 0.5, 1, or 4 h. At each time point, ACN (900 μL) was added to a mixture. After the mixture was centrifuged at 15,000 rpm for 5 min, the supernatant was mixed with the same volume of H2O (1% TFA) and then analyzed by LC-MS/MS. The results are summarized in Table 3, wherein Cbz-AAM is (2R,3S,4R,5S)-6-((4-((S)-6-acetamido-2-(((benzyloxy)carbonyl)amino)hexan-amido)phenyl)(phenyl)methoxy)-2-(acetoxymethyl)-5-(2-azidoacetamido)tetrahydro-2H-pyran-3,4-diyl diacetate.

Series [2] is described as follows: Compound stability in a biological matrix (mouse plasma). It is filed as in vitro ADME. The following applies: 10 μg/mL, 37° C., LC-MS/MS. How it is done:
as §1

The subject of series [3] is A549 cells. Briefly: Flow cytometry analysis of cell labeling (azido labeling efficiency). It is filed as cell-based. The following applies: Homo sapiens; A549 cells (lung); azido compound 25 μM, 48 h; mean fluorescence of live cells compared with PBS negative control. The procedure: (§2) Cells (2.0×10^6 cells/mL, 2 mL) were seeded in a 6-well culture plate and attached at 37° C. overnight. After washed thrice with PBS, the cells were incubated with an azido compound (25 μM) at 37° C. for 48 h. After washed thrice with PBS, the cells were incubated with DBCO-biotin (50 μM) in 500 μL serum free DMEM at 37° C. for 1 h. The cells were washed thrice with PBS and then incubated with streptavidin-Cy5 (5 μg/mL) in 500 μL serum free DMEM at 37° C. for 1 h. The cells were washed thrice with PBS, followed by addition of 300 μL 1×trypsin/EDTA for digestion. The lifted cells were transferred to a 1.5 mL EP tube, centrifuge at 1,000 rpm for 3 min, and washed with PBS once. Finally, 500 μL PBS containing 4% PFA was added to the cell pellet to fix the cells. The cell suspension was transferred to a flow tube and mixed with 10 μL of a PI working solution (50 μg/mL) at room temperature for 30 min before being subjected to flow cytometry.
(§3) Flow cytometry was used to characterize the labeling efficiency of a compound provided herein. After cells were labeled with an azido group, DBCO-biotin was added to specifically react with the azido group. Avidin-Cy5 was added bind to the cell surface biotin for a flow cytometry analysis. Dead cells were stained with PI and excluded from the analysis. Results were presented as the mean fluorescence of live cells, compared with PBS as a negative control and Ac4ManNAz (AAM) as a positive control, Ac4ManNAz (AAM, CAS: 361154-30-5).

The test system of series [4] is OVCAR3. Described as above. In kind it is cell-based. The following applies: OVCAR3 (ovarian), azido compound 25 μM, 48 h. The procedure:
as §2, §3

Series [5] concerns MDA-MB-231. The description is as above. In kind it is cell-based. The following applies: MDA-MB-231 (breast), azido compound 25 μM, 48 h. The procedure:
as §2, §3

The mark [6] stands for this setting: mean fluorescence of live cells compared with Ac4ManNAz (AAM) positive control.
Where [7] appears, read: mean fluorescence of live cells compared with PBS negative control.

Turning to `CC(=O)NCCCC[C@H](NC(=O)OCc1ccccc1)C(=O)Nc1ccc(C(OC2OC(COC(C)=O)C(OC(C)=O)C(OC(C)=O)C2NC(=O)CN=[N+]=[N-])c2ccnn2C)cc1` (stereo partly drawn) [Compound A8, 1-O-(1-(2-methylpyrazol-3-yl)-1-(4-(6-acetamido-2(S)-(benzyloxycarbonyl-amino)hexanamido)phenyl)methyl)-2-(2-azidoacetylamino)-2-deoxy-3,4,6-tri-O-acetyl-D-mannopyranoside], in series [1], the “Compound Remaining (%) Human 1 h” value is reported as 61%. Moreover, in series [1], the “Compound Remaining (%) Human 4 h” value came to 16%. Further, the “Compound Remaining (%) Mouse 1 h” value in series [2] was 76%. For the same compound, in series [2], the “Compound Remaining (%) Mouse 4 h” value is 23%. For the same compound, in series [3], the activity at 25 µM was 196%. For the same compound, the “Labeling Efficiency AAM %” value in series [4] (setting [6]) was 24%; in series [5] (setting [6]), 31%. The “Labeling Efficiency PBS %” value is 132% in series [4] (setting [7]) and 209% in series [5] (setting [7]).
Regarding `CC(=O)NCCCC[C@H](NC(=O)OCc1ccccc1)C(=O)Nc1ccc(C(OC2OC(COC(=O)c3cccnc3)C(OC(C)=O)C(OC(C)=O)C2NC(=O)CN=[N+]=[N-])c2ccnn2C)cc1` (stereo partly drawn) [Compound A13, 1-O-(1-(2-Methylpyrazol-3-yl)-1-(4-(6-acetamido-2(S)-(benzyloxycarbonyl-amino)hexanamido)phenyl)methyl)-2-(2-azidoacetylamino)-2-deoxy-3,4-di-O-acetyl-6-O-(pyridin-3-ylcarbonyl)-D-mannopyranoside], in series [1], the “Compound Remaining (%) Human 1 h” value is on record as 50% and the “Compound Remaining (%) Human 4 h” value is 12%. Further, in series [2], the “Compound Remaining (%) Mouse 1 h” value amounted to 76% and the “Compound Remaining (%) Mouse 4 h” value stood at 22%. For the same compound, the activity at 25 µM in series [3] was 180%.
`CC(=O)NCCCC[C@H](NC(C)=O)C(=O)Nc1ccc(C(OC2OC(COC(C)=O)C(OC(C)=O)C(OC(C)=O)C2NC(=O)CN=[N+]=[N-])c2ccnn2C)cc1` (stereo partly drawn) [Compound A14, 1-O-(1-(2-Methylpyrazol-3-yl)-1-(4-(2(S),6-diacetamidohexanamido)phenyl)-methyl)-2-(2-azidoacetylamino)-2-deoxy-3,4,6-tri-O-acetyl-D-mannopyranoside]: in series [1], the “Compound Remaining (%) Human 1 h” value came to 63% and the “Compound Remaining (%) Human 4 h” value turned out to be 19%. In series [2], the “Compound Remaining (%) Mouse 1 h” value worked out at 89% and the “Compound Remaining (%) Mouse 4 h” value is listed as 40%. For the same compound, the activity at 25 µM in series [3] turned out to be 620%.
Consider `CC(=O)NCCCC[C@H](NC(C)=O)C(=O)Nc1ccc(C(OC2OC(COC(C)=O)C(OC(C)=O)C(OC(C)=O)C2NC(=O)CN=[N+]=[N-])c2nccs2)cc1` (stereo partly drawn) [Compound A15, 1-O-(1-(Thiazol-2-yl)-1-(4-(2(S),6-diacetamidohexanamido)phenyl)methyl)-2-(2-azidoacetylamino)-2-deoxy-3,4,6-tri-O-acetyl-D-mannopyranoside], for which, in series [1], the “Compound Remaining (%) Human 1 h” value stood at 2% and the “Compound Remaining (%) Human 4 h” value is less than 2%. In addition, in series [2], the “Compound Remaining (%) Mouse 1 h” value was 2% and the “Compound Remaining (%) Mouse 4 h” value is reported as less than 2%. Moreover, the activity at 25 µM in series [3] worked out at 318%.
On to `CC(=O)NCCCC[C@H](NC(C)=O)C(=O)Nc1ccc(C(OC2OC(COC(C)=O)C(OC(C)=O)C(OC(C)=O)C2NC(=O)CN=[N+]=[N-])c2cncs2)cc1` (stereo partly drawn) [Compound A16, 1-O-(1-(Thiazol-5-yl)-1-(4-(2(S),6-diacetamidohexanamido)phenyl)methyl)-2-(2-azidoacetylamino)-2-deoxy-3,4,6-tri-O-acetyl-D-mannopyranoside], for which, in series [1], the “Compound Remaining (%) Human 1 h” value was 97% and the “Compound Remaining (%) Human 4 h” value is reported as 86%. Moreover, in series [2], the “Compound Remaining (%) Mouse 1 h” value is on record as 93% and the “Compound Remaining (%) Mouse 4 h” value turned out to be 73%. Besides, in series [3], the activity at 25 µM stood at 136%.
As to `CC(=O)NCCCC[C@H](NC(C)=O)C(=O)Nc1ccc(C(OC2OC(COC(=O)Cc3cccnc3)C(OC(C)=O)C(OC(C)=O)C2NC(=O)CN=[N+]=[N-])c2ccnn2C)cc1` (stereo partly drawn) [Compound A17, 1-O-(1-(2-Methylpyrazol-3-yl)-1-(4-(2(S),6-diacetamidohexanamido)phenyl)-methyl)-2-(2-azidoacetylamino)-2-deoxy-3,4-di-O-acetyl-6-O-(pyridin-3-ylacetyl)-D-mannopyranoside], in series [1], the “Compound Remaining (%) Human 1 h” value was 63% and the “Compound Remaining (%) Human 4 h” value turned out to be 10%. In series [2], the “Compound Remaining (%) Mouse 1 h” value is 77% and the “Compound Remaining (%) Mouse 4 h” value was 28%. Further, the activity at 25 µM in series [3] came out at 161%.
For `CC(=O)NCCCC[C@H](NC(C)=O)C(=O)Nc1ccc(C(OC2OC(COC(=O)C3CCN(C)CC3)C(OC(C)=O)C(OC(C)=O)C2NC(=O)CN=[N+]=[N-])c2ccnn2C)cc1` (stereo partly drawn) [Compound A18, 1-O-(1-(2-Methylpyrazol-3-yl)-1-(4-(2(S),6-diacetamidohexanamido)phenyl)-methyl)-2-(2-azidoacetylamino)-2-deoxy-3,4-di-O-acetyl-6-O-(1-methylpiperidin-4-ylcarbonyl)-D-mannopyranoside] the same measures were 95%, 85%, 100%, 93% and 104%.

Source of the values: patent US20260200964A1, “MONOSACCARIDES, PHARMACEUTICAL COMPOSITIONS, AND DIAGNOSTIC AND THERAPEUTIC APPLICATIONS” (Surio Therapeutics Co., LTD., priority 2022, published 2026).
